The results in this text go back to publication PMC11241267, “Prokaryotic Expression and Functional Verification of Antimicrobial Peptide LRGG” (International Journal of Molecular Sciences, 2024).

In data set [1] the test system is AB-strain zebrafish embryos. Briefly: Embryotoxicity in zebrafish. Format: in vivo. The conditions noted are these: embryos at 28 °C for approximately 2–3 days, light microscope; for zebrafish morphology (embryotoxicity): 1 × MIC. As for the experimental part:
A sodium dehydroacetate solution of 200 μg/mL served as the positive control, while the negative control group contained only culture medium. The embryos were cultured in a constant temperature incubator at 28 °C for approximately 2–3 days, and their morphology after fertilization was observed using a light microscope.

In a further data set the test system is sheep red blood cells. Format: cell-based. The conditions noted are these: red cells of sheep. The procedure: To obtain a suspension containing 2% red blood cells, 15 mL of sheep blood was collected in a tube containing 0.2% sodium heparin anticoagulant and centrifuged at 1000 rpm for 10 min. After discarding the supernatant, the red blood cell pellet was collected, washed twice with sterile phosphate buffered saline (PBS), and resuspended in PBS. […] After the erythrocyte suspension was incubated with the antimicrobial peptide LRGG for one hour at 37 °C, the mixture from each well of the 96-well plate was aspirated and centrifuged at 1000× g for 10 min. The absorbance of the supernatant was then measured at 570 nm, with three repeats and averaging. Finally, the hemolytic index was calculated as follows: Hemolytic index (%) = (O.D. peptide − O.D. PBS)/(O.D. TritonX − 100 − O.D. PBS) × 100%.

The subject of data set [2] is Eschericha coli ATCC25922. Briefly: Temperature and pH stability (MIC after treatment). Format: cell-based. Further details: MIC value, Control (pH 7) / MIC value after 0 °C / MIC value after 37 °C / MIC value after 100 °C / MIC value after pH 4 / MIC value after pH 6 / MIC value after pH 8 / MIC value after pH 10: unit not given beside the values. As to conditions: for MIC value after pH 4: peptide exposed for one hour to pH 4; for MIC value after pH 4 / MIC value after pH 6 / MIC value after pH 8 / MIC value after pH 10 / MIC value after 37 °C / MIC value after 100 °C / MIC value after 0 °C / MIC value, Control (pH 7): triplicate; for MIC value after pH 6: peptide exposed for one hour to pH 6; for MIC value after pH 8: peptide exposed for one hour to pH 8; for MIC value after pH 10: peptide exposed for one hour to pH 10; for MIC value after 37 °C: peptide heated to 37 °C for 30 min before MIC; for MIC value after 100 °C: peptide heated to 100 °C for 30 min before MIC; for MIC value after 0 °C: peptide in ice-cold water at 0 °C for 30 min before MIC; for MIC value, Control (pH 7): untreated peptide, Table 2 control; for increase of MIC value at 100 °C: versus untreated control. The procedure: (§1) The strains kept at −80 °C were reactivated, plated, and incubated overnight at 37 °C. Single colonies were picked, inoculated into 5 mL of MH medium, and cultured until they reached OD600 = 0.5. The bacterial suspensions were then diluted to 1 × 10^5 CFU/mL, and 50 μL was added to wells 1–11. Then, 50 μL and 100 μL of deionized water were added to wells […], respectively, to provide a positive and a negative control. The concentration of peptide present in the first non-turbid well in which bacterial growth was inhibited was taken as the minimal inhibitory concentration (MIC). This experiment was repeated three times.
The efficacy of the chemically synthesized and in vivo-expressed LRGG peptide were tested for their efficacy against Eschericha coli ATCC 25922 under various conditions, such as heat and different pH conditions, before determining their MIC in triplicate. In one case, the peptides were placed in ice-cold water at 0 °C and heated to 37 °C and 100 °C for 30 min each, and their efficacy was compared to that of an untreated control group. This process was repeated three times. […] In another set of experiments, the peptides were mixed and incubated with 1 mg/mL of four different proteases. After inactivation of the enzymes, the peptides were tested for their efficacy against Eschericha coli ATCC 25922. The peptides were also tested after mixing with various salt solutions and concentrations of fetal bovine serum at concentrations ranging from 5% to 50%. In all cases, the MIC were determined in triplicate using untreated antimicrobial peptides as controls.

The subject of data set [3] is Eschericha coli ATCC25922. Briefly: Protease stability (MIC after protease treatment). Format: cell-based. The conditions noted are these: triplicate; for MIC value after Papain: peptide incubated with 1 mg/mL papain; for MIC value after Papain / MIC value after Pepsin / MIC value after Protease K / MIC value after Trypsin: enzyme inactivated before MIC; for MIC value after Pepsin: peptide incubated with 1 mg/mL pepsin; for MIC value after Protease K: peptide incubated with 1 mg/mL protease K; for MIC value after Trypsin: peptide incubated with 1 mg/mL trypsin; for MIC value, Control: untreated peptide, Table 3 control. The arrangement: MIC value, Control: unit not given beside the values. As for the experimental part: as §1
(§2) The efficacy of the chemically synthesized and in vivo-expressed LRGG peptide were tested for their efficacy against Eschericha coli ATCC 25922 under various conditions, such as heat and different pH conditions, before determining their MIC in triplicate. In one case, the peptides were placed in ice-cold water at 0 °C and heated to 37 °C and 100 °C for 30 min each, and their efficacy was compared to that of an untreated control group. This process was repeated three times. In another case, the peptides were exposed for one hour to pH values of 4, 6, 8, and 10, and their activity was compared to that of an untreated control group. In another set of experiments, the peptides were mixed and incubated with 1 mg/mL of four different proteases. After inactivation of the enzymes, the peptides were tested for their efficacy against Eschericha coli ATCC 25922. The peptides were also tested after mixing with various salt solutions and concentrations of fetal bovine serum at concentrations ranging from 5% to 50%. In all cases, the MIC were determined in triplicate using untreated antimicrobial peptides as controls.

Data set [4] deals with Eschericha coli ATCC25922. Briefly: Plasma membrane potential (diSC3-5). Format: cell-based. As to conditions: 1–8 MIC, 0–1500 s, diSC3-5 0.4 μM. The procedure: To determine whether the expressed antimicrobial peptide LRGG can break bacterial cytoplasmic membranes, diSC3-5 was used as a fluorescent dye to monitor changes in membrane potential. A bacterial suspension was prepared and adjusted to an ABS O.D. of 600 = 0.5. Next, the same volume of bacterial suspension and varying concentrations of expressed antimicrobial peptide LRGG (1–8 MIC) were added to black 96-well plates. A control group was established using PBS, and diSC3-5 dye was added to a final concentration of 0.4 μM and incubated at room temperature in the dark for one hour. Changes in […] between 0 and 1500 s were measured using a fluorescence microplate reader at excitation (622 nm) and emission (670 nm) wavelengths.

Data set [5] has as its system Eschericha coli ATCC25922. Briefly: Serum stability (MIC at different serum concentrations). Format: cell-based. As to conditions: triplicate; for MIC value in 5% serum: fetal bovine serum 5%; for MIC value in 10% serum: fetal bovine serum 10%; for MIC value in 20% serum: fetal bovine serum 20%; for MIC value in 40% serum: fetal bovine serum 40%; for MIC value in 50% serum: fetal bovine serum 50%; for MIC value, Control: untreated peptide, Table 5 control. The procedure: as §1, §2

Data set [6] deals with Eschericha coli ATCC25922. Briefly: Salt ion stability (MIC in salt solutions). Format: cell-based. Further details: unit not given here. As to conditions: triplicate; for MIC value with MgCl2: 1 mM MgCl2; for MIC value with CaCl2: 2.5 mM CaCl2; for MIC value with KCl: 4.5 mM KCl; for MIC value with NH4Cl: 6 mM NH4Cl; for MIC value with NaCl: 150 mM NaCl; for MIC value, Control: untreated peptide, Table 4 control. As for the experimental part: as §1, §2

Where no end group is shown, it is not given here.

Regarding `CC(=O)c1c([O-])cc(C)oc1=O.[Na+]` [sodium dehydroacetate, reference compound], the “zebrafish morphology (embryotoxicity), positive control” value in data set [1] (200 μg/mL) was “significant hemorrhage and severe bending of the fish”.
Turning to GLLRLLRRGGRRLLRLL [Expressed LRGG], the hemolytic index entry in the data set with sheep red blood cells was “less than 10%”. Besides, in data set [2], the “MIC value after pH 4” value worked out at 2, the “MIC value after pH 6” value was 4, the “MIC value after pH 8” value amounted to 2 and the “MIC value after pH 10” value was determined as 16. In data set [2], the “MIC value after 37 °C” value amounted to 4; the “MIC value after 100 °C” value was determined as 8; the “MIC value after 0 °C” value was 2; the “MIC value, Control (pH 7)” value is 2. Moreover, the “increase of MIC value at 100 °C” value in data set [2] is recorded as “four-fold”. Besides, in data set [3], the “MIC value after Papain” value is reported as more than 64, the “MIC value after Pepsin” value was more than 128, the “MIC value after Protease K” value was more than 64 and the “MIC value after Trypsin” value is listed as more than 128. Moreover, in data set [3], the “MIC value, Control” value stood at 4. The “diSC3-5 fluorescence value (cytoplasmic membrane potential)” value in data set [4] is “gradually increased”. In data set [5], the “MIC value in 5% serum” value is listed as 2, the “MIC value in 10% serum” value came to 4, the “MIC value in 20% serum” value is listed as 32 and the “MIC value in 40% serum” value is on record as 32. In addition, in data set [5], the “MIC value in 50% serum” value was 32 and the “MIC value, Control” value came out at 2. Also, in data set [6], the “MIC value with MgCl2” value stood at 8, the “MIC value with CaCl2” value turned out to be 4, the “MIC value with KCl” value is recorded as 8 and the “MIC value with NH4Cl” value came out at 4. Besides, in data set [6], the “MIC value with NaCl” value amounted to 8 and the “MIC value, Control” value is on record as 4. For the same compound, in data set [1], the “zebrafish morphology (embryotoxicity)” value is given as “did not change the morphology of the zebrafish”.
For the compound “H-LLRLLRRGGRRLLRLL-NH2 [Chem. Syn. LRGG]”, in data set [2], the “MIC value after pH 4” value worked out at 2, the “MIC value after pH 6” value is 2, the “MIC value after pH 8” value is reported as 4 and the “MIC value after pH 10” value came to 4. For the same compound, in data set [2], the “MIC value after 37 °C” value amounted to 2; the “MIC value after 100 °C” value amounted to 8; the “MIC value after 0 °C” value turned out to be 2; the “MIC value, Control (pH 7)” value came to 2. Further, in data set [2], the “increase of MIC value at 100 °C” value was “four-fold”. In data set [3], the “MIC value after Papain” value was more than 64, the “MIC value after Pepsin” value is more than 128, the “MIC value after Protease K” value was more than 64 and the “MIC value after Trypsin” value is given as more than 128. Also, the “MIC value, Control” value in data set [3] is 2. In addition, in data set [5], the “MIC value in 5% serum” value came to 2, the “MIC value in 10% serum” value is given as 2, the “MIC value in 20% serum” value is 8 and the “MIC value in 40% serum” value came out at 16. In addition, in data set [5], the “MIC value in 50% serum” value was determined as 16 and the “MIC value, Control” value is 2. Further, in data set [6], the “MIC value with MgCl2” value was 4, the “MIC value with CaCl2” value worked out at 4, the “MIC value with KCl” value was determined as 2 and the “MIC value with NH4Cl” value is 2. Also, in data set [6], the “MIC value with NaCl” value was found to be 8 and the “MIC value, Control” value is reported as 2. Besides, the “zebrafish morphology (embryotoxicity)” value in data set [1] is “did not change the morphology of the zebrafish”.
